Where “and” joins values, the source holds several entries; their conditions need not be identical. Equal values may be shown once. Inconclusive results and toxic doses are left out. No stated cut-off is given here; in the data, active means T/C of 150% or more; inactive means T/C below 125%.
Test system: L1210 leukemia ip in BDF1 mice, survival T/C
Test: NCI In Vivo Anticancer Drug Screen. Data for tumor model L1210 Leukemia (intraperitoneal) in B6D2F1 (BDF1) mice
Details: endpoint: mean survival time, higher = longer survival
Outline: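 Transplantable tumor model; survival measured in treated vs vehicle control mice. Value = treated/control.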

[1] = dose: 50.0 mg/kg/injection, schedule: Q01DX009 (ip), vehicle: saline with Tween-80
[2] = dose: 100.0 mg/kg/injection, schedule: Q01DX009 (ip), vehicle: saline with Tween-80
[3] = dose: 100.0 mg/kg/injection, schedule: Q04DX003 (ip), vehicle: saline with Tween-80
[4] = dose: 100.0 mg/kg/injection, schedule: Q01DX001 (ip), vehicle: Klucel (hydroxypropylcellulose) (HPC)
[5] = dose: 20.0 mg/kg/injection, schedule: Q01DX009 (ip), vehicle: Klucel (hydroxypropylcellulose) (HPC)
[6] = dose: 50.0 mg/kg/injection, schedule: Q01DX001 (ip), vehicle: saline
[7] = dose: 100.0 mg/kg/injection, schedule: Q01DX001 (ip), vehicle: saline
[8] = dose: 200.0 mg/kg/injection, schedule: Q01DX001 (ip), vehicle: saline
[9] = dose: 50.0 mg/kg/injection, schedule: Q04DX003 (ip), vehicle: Klucel (hydroxypropylcellulose) (HPC)
[10] = dose: 100.0 mg/kg/injection, schedule: Q04DX003 (ip), vehicle: Klucel (hydroxypropylcellulose) (HPC)
[11] = dose: 200.0 mg/kg/injection, schedule: Q04DX003 (ip), vehicle: Klucel (hydroxypropylcellulose) (HPC)
[12] = dose: 200.0 mg/kg/injection, schedule: Q04DX003 (ip), vehicle: saline with Tween-80
[13] = dose: 100.0 mg/kg/injection, schedule: Q01DX009 (ip), vehicle: Klucel (hydroxypropylcellulose) (HPC)
[14] = dose: 200.0 mg/kg/injection, schedule: Q01DX009 (ip), vehicle: Klucel (hydroxypropylcellulose) (HPC)
[15] = dose: 100.0 mg/kg/injection, schedule: Q04DX002 (ip), vehicle: saline with Tween-80
[16] = dose: 200.0 mg/kg/injection, schedule: Q04DX002 (ip), vehicle: saline with Tween-80

Measured: T/C

CCCCCCCCCCCCCCCCCC[N+](C)(C)C
inactive: dose: 1.0 mg/kg/injection, schedule: Q01DX015 (ip), vehicle: saline 94 % of control | dose: 2.0 mg/kg/injection, schedule: Q01DX015 (ip), vehicle: saline 94 % of control | dose: 3.12 mg/kg/injection, schedule: Q01DX009 (ip), vehicle: saline 94 % of control | dose: 4.0 mg/kg/injection, schedule: Q01DX015 (ip), vehicle: saline 95 % of control | dose: 6.25 mg/kg/injection, schedule: Q01DX009 (ip), vehicle: saline 94 % of control | dose: 12.5 mg/kg/injection, schedule: Q04DX003 (ip), vehicle: saline 87 % of control

NNC(=O)c1ccc([N+](=O)[O-])cc1
inactive: dose: 25.0 mg/kg/injection, schedule: Q01DX009 (ip), vehicle: saline with Tween-80 97 % of control | [1] 92 % of control | [2] 95 % of control | [3] 95 % of control

CCCN(CCC#N)C(=S)Nc1ccc(C)c(C)c1
inactive: dose: 100.0 mg/kg/injection, schedule: Q04DX002 (ip), vehicle: Klucel (hydroxypropylcellulose) (HPC) 94 % of control | dose: 200.0 mg/kg/injection, schedule: Q04DX002 (ip), vehicle: Klucel (hydroxypropylcellulose) (HPC) 97 % of control | dose: 400.0 mg/kg/injection, schedule: Q04DX002 (ip), vehicle: Klucel (hydroxypropylcellulose) (HPC) 94 % of control

CCOc1ccc(Br)cc1C1N(Cc2ccc(OC)cc2)CCCN1Cc1ccc(OC)cc1
inactive: dose: 100.0 mg/kg/injection, schedule: Q01DX001 (ip), vehicle: carboxymethylcellulose (CMC) 96 % of control | dose: 200.0 mg/kg/injection, schedule: Q01DX001 (ip), vehicle: carboxymethylcellulose (CMC) 93 % of control | dose: 400.0 mg/kg/injection, schedule: Q01DX001 (ip), vehicle: carboxymethylcellulose (CMC) 91 % of control

S=C(N/N=C\c1ccccc1)N/N=C/c1ccccc1
inactive: dose: 100.0 mg/kg/injection, schedule: Q04DX002 (ip), vehicle: gum acacia 93 % of control | dose: 200.0 mg/kg/injection, schedule: Q04DX002 (ip), vehicle: gum acacia 96 % of control | dose: 400.0 mg/kg/injection, schedule: Q04DX002 (ip), vehicle: gum acacia 93 % of control

Cc1ccccc1-n1c(O)c(N=Nc2ccc(Cl)cc2)c(=O)n(-c2ccccc2)c1=S
inactive: [4] 87 % of control | dose: 200.0 mg/kg/injection, schedule: Q01DX001 (ip), vehicle: Klucel (hydroxypropylcellulose) (HPC) 109 % of control

CC(C)=CCC(CCN1CCCC1)(C(N)=O)c1cccc2ccccc12 (centres undefined)
inactive: dose: 5.0 mg/kg/injection, schedule: Q01DX009 (ip), vehicle: Klucel (hydroxypropylcellulose) (HPC) 102 % of control | dose: 5.0 mg/kg/injection, schedule: Q04DX003 (ip), vehicle: Klucel (hydroxypropylcellulose) (HPC) 98 % of control | dose: 10.0 mg/kg/injection, schedule: Q01DX009 (ip), vehicle: Klucel (hydroxypropylcellulose) (HPC) 95 % of control | dose: 10.0 mg/kg/injection, schedule: Q04DX003 (ip), vehicle: Klucel (hydroxypropylcellulose) (HPC) 104 % of control | [5] 98 % of control | dose: 20.0 mg/kg/injection, schedule: Q04DX003 (ip), vehicle: Klucel (hydroxypropylcellulose) (HPC) 104 % of control

Nc1nc(N)c(-c2ccc(Cl)cc2)c(/C=C/c2ccc([N+](=O)[O-])cc2)n1
inactive: [6] 104 % of control | [7] 93 % of control | [8] 93 % of control | dose: 400.0 mg/kg/injection, schedule: Q01DX001 (ip), vehicle: saline 96 % of control

COc1ccccc1OS(=O)(=O)c1ccc(C)cc1
inactive: [9] 105 % of control | [10] 104 % of control | [11] 105 % of control

c1ccc(-c2nnc3oc(-c4ccco4)nn23)cc1
inactive: [2] 100 % of control | [3] 96 % of control | dose: 200.0 mg/kg/injection, schedule: Q01DX009 (ip), vehicle: saline with Tween-80 101 % of control | [12] 102 % of control | dose: 400.0 mg/kg/injection, schedule: Q01DX009 (ip), vehicle: saline with Tween-80 101 % of control | dose: 400.0 mg/kg/injection, schedule: Q04DX003 (ip), vehicle: saline with Tween-80 94 % of control

C=CCSc1nccnc1C
inactive: dose: 50.0 mg/kg/injection, schedule: Q01DX009 (ip), vehicle: Klucel (hydroxypropylcellulose) (HPC) 100 % of control | [13] 103 % of control | [14] 110 % of control

CC(C)(CCl)COS(=O)(=O)c1ccc(Br)cc1
inactive: [1] 90 % of control | [2] 90 % of control

c1ccc2c(C3OCC4(CCCCC4)CO3)cccc2c1
inactive: [13] 97 % of control | [10] 101 % of control | [14] 97 % of control | [11] 105 % of control | dose: 400.0 mg/kg/injection, schedule: Q01DX009 (ip), vehicle: Klucel (hydroxypropylcellulose) (HPC) 92 % of control | dose: 400.0 mg/kg/injection, schedule: Q04DX003 (ip), vehicle: Klucel (hydroxypropylcellulose) (HPC) 111 % of control

Cc1cc(OC(=O)Nc2ccccc2)ccc1Cl
inactive: dose: 100.0 mg/kg/injection, schedule: Q04DX002 (ip), vehicle: saline + alcohol 100 % of control | dose: 200.0 mg/kg/injection, schedule: Q04DX002 (ip), vehicle: saline + alcohol 100 % of control | dose: 400.0 mg/kg/injection, schedule: Q04DX002 (ip), vehicle: saline + alcohol 96 % of control

COC(=O)Cc1cc(C)n(C)c(=O)c1CN1C(=O)c2ccccc2C1=O
inactive: dose: 100.0 mg/kg/injection, schedule: Q04DX003 (ip), vehicle: other 102 % of control | dose: 200.0 mg/kg/injection, schedule: Q04DX003 (ip), vehicle: other 107 % of control | dose: 400.0 mg/kg/injection, schedule: Q04DX003 (ip), vehicle: other 98 % of control

CSc1nc(SC)c2c(ncn2C2OC(CO)C(O)C2O)n1 (centres undefined)
inactive: [6] 111 % of control | [7] 102 % of control | [8] 104 % of control

Cc1cc(Cl)c(=O)n(-c2ccc(Cl)cc2)n1
inactive: dose: 50.0 mg/kg/injection, schedule: Q04DX003 (ip), vehicle: saline with Tween-80 109 % of control | [3] 103 % of control | [12] 98 % of control

NC(=O)c1ccc(OCc2cnc3nc(N)nc(N)c3n2)cc1
inactive: [5] 98 % of control | dose: 40.0 mg/kg/injection, schedule: Q01DX009 (ip), vehicle: Klucel (hydroxypropylcellulose) (HPC) 95 % of control | dose: 80.0 mg/kg/injection, schedule: Q01DX009 (ip), vehicle: Klucel (hydroxypropylcellulose) (HPC) 109 % of control

COc1ccc(-c2ccc(OC)c(OC)c2OC)c(N)c1
inactive: dose: 65.0 mg/kg/injection, schedule: Q01DX Z (ip), vehicle: carboxymethylcellulose (CMC) 93 % of control and 121 % of control | dose: 125.0 mg/kg/injection, schedule: Q01DX Z (ip), vehicle: carboxymethylcellulose (CMC) 94 % of control and 100 % of control | dose: 250.0 mg/kg/injection, schedule: Q01DX Z (ip), vehicle: carboxymethylcellulose (CMC) 93 % of control and 86 % of control | dose: 500.0 mg/kg/injection, schedule: Q01DX Z (ip), vehicle: carboxymethylcellulose (CMC) 112 % of control

CC(C)N=C(NC(C)C)c1ccc(NC(=O)c2ccc(C(=O)Nc3ccc(C(=NC(C)C)NC(C)C)cc3)cc2)cc1
inactive: dose: 15.5 mg/kg/injection, schedule: Q01DX Z (ip), vehicle: methylcellulose (MC) 103 % of control

CP1(=O)CCC(=O)C1Br (centres undefined)
inactive: dose: 50.0 mg/kg/injection, schedule: Q04DX002 (ip), vehicle: saline with Tween-80 98 % of control | [15] 95 % of control | [16] 91 % of control

Clc1ccccc1C(=Nc1ccccc1)C(=Nc1ccccc1)c1ccccc1Cl
inactive: dose: 12.5 mg/kg/injection, schedule: Q01DX001 (ip), vehicle: Klucel (hydroxypropylcellulose) (HPC) 106 % of control | dose: 25.0 mg/kg/injection, schedule: Q01DX001 (ip), vehicle: Klucel (hydroxypropylcellulose) (HPC) 102 % of control | dose: 25.0 mg/kg/injection, schedule: Q04DX003 (ip), vehicle: Klucel (hydroxypropylcellulose) (HPC) 90 % of control | dose: 50.0 mg/kg/injection, schedule: Q01DX001 (ip), vehicle: Klucel (hydroxypropylcellulose) (HPC) 106 % of control | [9] 92 % of control | [4] 88 % of control | [10] 87 % of control | dose: 400.0 mg/kg/injection, schedule: Q01DX001 (ip), vehicle: Klucel (hydroxypropylcellulose) (HPC) 90 % of control

CC(=O)Nc1nc(SCc2ccccc2)c2c(no[n+]2[O-])n1
inactive: [15] 97 % of control | [16] 116 % of control

Source: PubChem BioAssay AID248 (DTP/NCI, 2004)
